# Article PMC9983021, “Novel GluN2B-Selective NMDA Receptor Negative Allosteric Modulator Possesses Intrinsic Analgesic Properties and Enhances Analgesia of Morphine in a Rodent Tail Flick Pain Model” (ACS Chemical Neuroscience, 2023)
# Legend:
# [1] = target: GluN1/GluN2C (Rattus norvegicus, UniProt P35439+Q00961)
# [2] = test system: Sprague-Dawley rats; experiment: Chung spinal nerve ligation model of allodynia; format: in vivo; conditions: male rats, 10 mg/kg i.p., n=10
# Experimental: Methods for Chung Spinal Nerve Ligation
# The Chung spinal nerve ligation model was implemented by Algos Therapeutics. Male Sprague-Dawley rats (Hsd:Sprague-Dawley®™SD®™, Harlan, Indianapolis, Indiana, U.S.A.) weighing 222 ± 1 g were housed three per cage and given ad libitum access to food and water. Animal holding rooms operated on a 12:12h light/dark schedule for the entire duration of the study. The animal colony was maintained at 21 °C and 60% humidity. All experiments were conducted in accordance with the International Association for the Study of Pain guidelines and were approved by the University of Minnesota Animal Care and Use Committee.
# Allodynia was induced via the Chung spinal nerve ligation (SNL) method116 in which the animals were anesthetized with isoflurane, the left L5 transverse process was removed, then the L5 and L6 spinal nerves were tightly ligated with 6-0 silk suture. Finally, the wound was closed with internal sutures and external staples. Allodynia was assessed using 8 Semmes-Weinstein filaments (Stoelting, Wood Dale, IL, USA) with varying stiffness (0.4, 0.7, 1.2, 2.0, 3.6, 5.5, 8.5, and 15 g) following the up-down method117 first published by Chaplan et al. in 1994. Baseline measurements were taken two weeks following SNL and prior to compound administration. Measurements were also taken 30, 60, 120 and 240 minutes post intraperitoneal compound injection. […]
# [3] = test system: PBR; experiment: Radioligand binding assay (NIMH PDSP); set-up: species or system human; conditions: primary screen, 10 µM, quadruplicate
# Experimental: (§1) Conventional competition and saturation radioligand binding assays were used to determine the affinities of reference standards and EU93-108. Experiments were carried out by the NIMH Psychoactive Drug Screening Program (PDSP) and were performed as previously described.[123]
# (§2) The detailed experimental protocols for the radioligand assays are available on the NIMH PDSP website at https://pdsp.unc.edu/pdspweb/content/UNC-CH%20Protocol%20Book.pdf.
# (§3) Receptor Mean % Receptor Mean % Receptor Mean %
# (§4) Inhibition Inhibition Inhibition
# (§5) Supplemental Table S4. Off-Target Actions of EU93-108: Primary GPCR Screen. Cloned human molecular targets were individually expressed and submitted to molecular target-based screening with initial screens performed at a final concentration of 10 µM in quadruplicate. Complete protocols for the assays have been previously published (Besnard J et al. 2012). Where inhibition greater than 50% was measured, secondary screens were performed wherein Ki values were calculated (see Table 4).
# [4] = test system: GABAA; experiment: Radioligand binding assay (NIMH PDSP); set-up: species or system human; conditions: primary screen, 10 µM, quadruplicate
# Experimental: as §1, §2, §3, §4, §5
# [5] = test system: C57BL/6J mice; experiment: Preestablished morphine tolerance (tolerant mice, tail immersion test); format: in vivo; conditions: males 10 mg/kg, females 20 mg/kg i.p.
# Source text: We next wanted to assess EU93-108 for effects on other facets of tolerance. Specifically, we were interested in whether EU93-108 could increase tail flick latency in mice that were already tolerant to morphine (i.e., preestablished tolerance). To assess the effect of EU93-108 on preestablished tolerance, five groups were used (n = 8 per group): vehicle/saline, vehicle/morphine, ifenprodil/morphine, EU93-108/saline, and EU93-108/morphine. All groups except for the vehicle/saline control group were administered morphine three times per day (according to the stair stepping protocol outlined in Figure 11) at gradually increasing doses from 25 to 40 mg/kg three times a day at 3–4 h intervals for three consecutive days until tolerance was observed on day 4 (Figure 12, black circles).
# Figure 11 Dosing regimen to assess effects of EU93-108 on tolerant mice. TIT = tail immersion test. All mice received morphine or saline three times a day according to the protocol in Figure 9. Doses of morphine are shown above the arrows, in mg/kg. Once tolerance was established on day 4, the mice were randomly assigned to receive vehicle, EU93-108, or ifenprodil once a day for two consecutive days. […]
# Mouse weights were recorded on the day of each experiment. […] Three recordings were taken for each mouse, and each data point is expressed as the mean of the three recordings. […] The identities were not decoded until the data were analyzed.
# Prism 9.3.1 software (GraphPad, San Diego, CA) was used for all data analysis and visualization. Data for intrinsic antinociception was analyzed using one-way ANOVA and Dunnett’s post hoc test for multiple comparisons where each group was compared to vehicle. Data for acute morphine potentiation experiments were analyzed using one-way ANOVA and Tukey’s post hoc test for multiple comparisons was also used, where each group mean was compared to the mean of every other group. Data for tolerance experiments were analyzed using repeated measures two-way ANOVA and Bonferroni post hoc analysis. […]
# [6] = target: diheteromeric human GluN1/GluN2B/GluN2B (h2B/h2B) (Homo sapiens, UniProt Q05586+Q13224); experiment: Concentration-inhibition curves, oocytes
# Sequence of diheteromeric human GluN1/GluN2B/GluN2B (h2B/h2B) (Q13224 27-1484, other chains not shown): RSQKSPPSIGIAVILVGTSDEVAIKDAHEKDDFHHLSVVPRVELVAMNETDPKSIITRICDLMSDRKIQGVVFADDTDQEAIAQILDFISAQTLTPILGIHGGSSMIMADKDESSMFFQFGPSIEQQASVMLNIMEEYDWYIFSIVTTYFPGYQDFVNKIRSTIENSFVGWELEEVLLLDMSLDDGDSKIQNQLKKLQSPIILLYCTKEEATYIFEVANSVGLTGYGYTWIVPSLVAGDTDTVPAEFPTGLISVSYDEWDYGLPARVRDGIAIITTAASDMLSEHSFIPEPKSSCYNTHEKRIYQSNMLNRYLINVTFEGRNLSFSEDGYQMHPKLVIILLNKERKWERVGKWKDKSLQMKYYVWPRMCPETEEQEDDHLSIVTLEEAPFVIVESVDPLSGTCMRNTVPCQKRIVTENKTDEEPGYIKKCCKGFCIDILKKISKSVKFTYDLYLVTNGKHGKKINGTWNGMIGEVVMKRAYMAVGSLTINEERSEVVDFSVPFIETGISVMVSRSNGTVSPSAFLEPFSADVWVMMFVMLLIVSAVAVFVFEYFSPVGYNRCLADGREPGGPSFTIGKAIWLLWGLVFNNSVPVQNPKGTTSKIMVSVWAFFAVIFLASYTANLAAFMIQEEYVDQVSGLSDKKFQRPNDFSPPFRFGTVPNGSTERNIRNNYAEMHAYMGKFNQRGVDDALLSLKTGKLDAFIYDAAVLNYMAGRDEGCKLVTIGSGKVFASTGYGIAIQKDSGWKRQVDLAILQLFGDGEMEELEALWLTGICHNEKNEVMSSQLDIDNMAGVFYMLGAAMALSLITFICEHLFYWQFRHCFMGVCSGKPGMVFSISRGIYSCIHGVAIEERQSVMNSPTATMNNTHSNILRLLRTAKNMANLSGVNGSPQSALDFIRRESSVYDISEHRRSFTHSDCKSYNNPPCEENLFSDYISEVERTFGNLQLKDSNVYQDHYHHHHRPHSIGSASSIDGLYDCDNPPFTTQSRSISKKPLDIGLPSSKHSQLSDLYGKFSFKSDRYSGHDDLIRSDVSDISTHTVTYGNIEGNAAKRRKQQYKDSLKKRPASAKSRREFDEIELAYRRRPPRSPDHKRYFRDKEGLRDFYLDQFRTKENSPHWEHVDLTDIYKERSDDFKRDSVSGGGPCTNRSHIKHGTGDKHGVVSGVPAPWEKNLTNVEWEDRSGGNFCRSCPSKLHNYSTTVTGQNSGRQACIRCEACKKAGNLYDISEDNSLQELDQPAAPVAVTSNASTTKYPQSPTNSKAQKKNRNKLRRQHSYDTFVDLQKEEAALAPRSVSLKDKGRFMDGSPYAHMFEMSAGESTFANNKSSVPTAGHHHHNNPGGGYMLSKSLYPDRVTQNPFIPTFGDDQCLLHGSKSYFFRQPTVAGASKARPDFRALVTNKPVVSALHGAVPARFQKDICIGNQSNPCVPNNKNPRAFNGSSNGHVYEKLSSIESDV
# Sequence of GluN1/GluN2C (Q00961 20-1237, other chains not shown): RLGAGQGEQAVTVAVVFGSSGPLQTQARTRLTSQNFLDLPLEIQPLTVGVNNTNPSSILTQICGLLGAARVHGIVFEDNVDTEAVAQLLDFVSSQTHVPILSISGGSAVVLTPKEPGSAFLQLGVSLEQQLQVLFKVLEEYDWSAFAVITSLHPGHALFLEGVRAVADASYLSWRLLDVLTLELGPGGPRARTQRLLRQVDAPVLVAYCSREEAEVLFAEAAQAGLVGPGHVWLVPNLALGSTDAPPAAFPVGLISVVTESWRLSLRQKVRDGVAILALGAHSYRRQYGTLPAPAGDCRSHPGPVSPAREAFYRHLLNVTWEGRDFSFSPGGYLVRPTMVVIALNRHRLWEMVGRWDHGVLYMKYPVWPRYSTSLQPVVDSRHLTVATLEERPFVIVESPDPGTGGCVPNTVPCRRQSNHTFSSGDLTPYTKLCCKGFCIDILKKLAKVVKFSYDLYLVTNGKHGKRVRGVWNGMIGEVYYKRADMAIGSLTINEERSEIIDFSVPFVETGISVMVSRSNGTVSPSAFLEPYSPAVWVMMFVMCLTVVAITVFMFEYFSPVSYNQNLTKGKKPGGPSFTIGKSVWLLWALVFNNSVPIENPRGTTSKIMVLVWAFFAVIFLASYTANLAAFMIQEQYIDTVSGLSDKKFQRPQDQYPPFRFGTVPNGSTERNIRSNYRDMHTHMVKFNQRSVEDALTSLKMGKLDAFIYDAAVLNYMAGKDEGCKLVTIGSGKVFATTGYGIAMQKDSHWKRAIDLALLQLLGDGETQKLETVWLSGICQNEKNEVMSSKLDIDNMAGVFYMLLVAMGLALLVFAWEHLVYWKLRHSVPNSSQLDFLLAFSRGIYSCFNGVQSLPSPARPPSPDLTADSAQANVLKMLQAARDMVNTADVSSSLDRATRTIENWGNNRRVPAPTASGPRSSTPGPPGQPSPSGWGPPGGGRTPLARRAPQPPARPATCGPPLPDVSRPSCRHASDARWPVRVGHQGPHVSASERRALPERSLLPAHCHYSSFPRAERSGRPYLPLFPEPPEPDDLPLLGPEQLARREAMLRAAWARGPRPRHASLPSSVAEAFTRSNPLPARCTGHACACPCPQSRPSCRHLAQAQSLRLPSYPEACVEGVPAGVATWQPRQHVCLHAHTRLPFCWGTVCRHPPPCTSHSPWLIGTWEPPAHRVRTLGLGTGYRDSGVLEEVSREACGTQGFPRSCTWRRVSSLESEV
smiles,measurement,setting,value
"CS(=O)(=O)Nc1ccc(OC[C@@H](O)CN2CCN(c3ccc(F)c(F)c3)CC2)cc1 [EU93-108, (S)-N-(4-(3-(4-(3,4-Difluorophenyl)piperazin-1-yl)-2-hydroxypropoxy)phenyl)methanesulfonamide]",% Control 10 µM EU93-108,"[1]; agonist 100 µM glutamate, 30 µM glycine, mean ± SEM",97 ± 2.8%
same,inhibition at 10 µM,[1]; read-out: Mean % Inhibition by 10 μM EU93-108,5.3 ± 2.2%
same,effect on allodynia (von Frey threshold),[2],efficacious
same,Mean % Inhibition,[3],-0.34%
same,Mean % Inhibition,[4],1.91%
same,"tail flick latency in morphine-tolerant mice, day 5 vs day 4",[5]; co-administered with morphine,did not show a further decrease in latency on day 5
same,"tail flick latency in morphine-tolerant mice, day 5 vs day 4",[5]; given with saline (no morphine),most significant decrease in latency
same,IC50,[6],261 nM
same,residual current remaining at 10 μM EU93-108,"[6]; 10 μM, % of maximal response, n = 10",12%
same,nH,"[6]; Hill slope factor of the inhibition curve, Table S1",-1.16
same,Ymin,"[6]; residual response, Table S1, N = 10",12.0
